In assay [1] the test system is 5-LO mediated product formation. Nature of the assay: 5-LO mediated product formation in intact neutrophils stimulated with A23187 (cell-based). The settings on record: Homo sapiens, Neutrophil; A23187, in the presence of 20 µM to 80 µM exogenous arachidonic acid (Figure 2); read-out: IC50 5-LO mediated product formation in human neutrophils with exogenous AA.
Assay [2] has as its target T1, 15-LO (Homo sapiens, UniProt P16050).
T1 construct: 12-LO or 15-LO, up to 10 µM in A23187-stimulated neutrophils; endogenous in cells; host or cells: A23187-stimulated neutrophils
T1 sequence (P16050 1-662): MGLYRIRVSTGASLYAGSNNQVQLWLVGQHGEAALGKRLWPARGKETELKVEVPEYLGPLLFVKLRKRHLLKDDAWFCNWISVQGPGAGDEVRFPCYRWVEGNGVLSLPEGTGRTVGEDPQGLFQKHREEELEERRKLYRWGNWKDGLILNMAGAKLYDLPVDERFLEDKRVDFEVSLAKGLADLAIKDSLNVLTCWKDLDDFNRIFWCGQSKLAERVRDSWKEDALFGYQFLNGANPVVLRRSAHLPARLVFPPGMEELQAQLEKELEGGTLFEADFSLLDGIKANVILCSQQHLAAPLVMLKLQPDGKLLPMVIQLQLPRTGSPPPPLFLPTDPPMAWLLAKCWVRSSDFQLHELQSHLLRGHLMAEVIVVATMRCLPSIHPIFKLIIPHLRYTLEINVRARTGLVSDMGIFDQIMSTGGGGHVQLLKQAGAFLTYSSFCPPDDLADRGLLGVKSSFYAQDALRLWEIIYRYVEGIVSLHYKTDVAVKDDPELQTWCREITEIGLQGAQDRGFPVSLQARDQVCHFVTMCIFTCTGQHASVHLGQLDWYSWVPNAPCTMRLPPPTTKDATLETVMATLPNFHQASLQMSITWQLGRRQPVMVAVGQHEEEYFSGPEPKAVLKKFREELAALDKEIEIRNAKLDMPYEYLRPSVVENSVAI
Nature of the assay: 15-LO inhibition in A23187-stimulated neutrophils. It is filed as cell-based. The settings on record: up to 10 µM in A23187-stimulated neutrophils.

Assay [3] addresses T2, 5-LO (Homo sapiens, UniProt P09917).
T2 sequence (P09917 1-674): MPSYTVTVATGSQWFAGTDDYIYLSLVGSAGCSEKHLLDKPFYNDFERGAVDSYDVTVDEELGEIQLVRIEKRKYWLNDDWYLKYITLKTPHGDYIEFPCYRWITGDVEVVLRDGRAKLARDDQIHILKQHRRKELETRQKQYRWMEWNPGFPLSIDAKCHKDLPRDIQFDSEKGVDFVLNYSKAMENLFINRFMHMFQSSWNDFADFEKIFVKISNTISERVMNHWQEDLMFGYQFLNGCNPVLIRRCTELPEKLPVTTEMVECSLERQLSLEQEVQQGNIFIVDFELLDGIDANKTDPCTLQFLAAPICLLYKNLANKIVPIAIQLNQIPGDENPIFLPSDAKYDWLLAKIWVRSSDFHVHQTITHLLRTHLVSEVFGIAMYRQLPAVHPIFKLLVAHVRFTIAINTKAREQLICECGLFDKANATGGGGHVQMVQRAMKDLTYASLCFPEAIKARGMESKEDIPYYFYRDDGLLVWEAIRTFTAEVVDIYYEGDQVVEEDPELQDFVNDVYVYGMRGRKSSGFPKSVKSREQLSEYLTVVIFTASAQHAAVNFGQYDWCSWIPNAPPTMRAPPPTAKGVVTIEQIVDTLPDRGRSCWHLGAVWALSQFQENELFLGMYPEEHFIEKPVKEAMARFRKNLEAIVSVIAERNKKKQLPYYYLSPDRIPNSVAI
Nature of the assay: 5-LO mediated product synthesis in HEK293 cells transfected with only 5-LO. It is filed as cell-based. Conditions: 2.5 µM A23187 plus 3 µM AA (Figure 7). As to the method: Compound 9hj inhibited 5-LO mediated product synthesis in HEK293 cells transfected with only 5-LO, with IC50 of 900 nM. […] After preincubation of cells with 9hj for 15 min at 37°C, cells were stimulated with 2.5 µM A23187 plus 3 µM AA for 10 min at 37°C. Data are expressed as percentage of vehicle control (0.1% DMSO). 100% controls correspond to 157.48 ng mL^-1 for 5-LO transfected cells and 155.15 ng mL^-1 for 5-LO plus FLAP transfected cells.

By IC50 is commonly meant the point on the concentration scale where inhibition reaches its midpoint. Take `O=C(O)c1noc(-c2ccc(OCc3ccc4ccccc4n3)cc2)c1-c1ccc(Cl)cc1` [Compound 9hj, 4-(4-Chlorophenyl)-5-(4-(quinolin-2-ylmethoxy)phenyl)isoxazole-3-carboxylic acid]: the 50% inhibitory concentration (IC50) is 170 to 350 nM in assay [1] and 900 nM in assay [3]. In addition, the “inhibition of 15-LO” value in assay [2] is recorded as “did not inhibit”.

Source of the values: patent EP2949653A1, “ISOXAZOLE DERIVATIVES AS LEUKOTRIENE BIOSYNTHESIS INHIBITORS” (Banoglu, Erden, priority 2014, dated 2015).
